What was measured:
Assay type in all cases: physicochemical
[1] = Variable humidity XRPD (VH-XRPD); conditions: for time to complete dehydration/conversion to Form XIII: exposure to 0% RH
Text: (§1) X-ray powder diffraction patterns were collected with a PANalytical X'Pert PRO MPD diffractometer using an incident beam of Cu Kα radiation produced using a long, fine-focus source and a nickel filter. The diffractometer was configured using the symmetric Bragg—Brentano geometry. Data were collected and analyzed using Data Collector software v. 2.2b. […] A specimen of the sample was packed in a nickel-coated copper well. Antiscatter slits were used to minimize the background generated by air. Soller slits for the incident and diffracted beams were used to minimize broadening from axial divergence. Diffraction patterns were collected using a scanning position-sensitive detector (X'Celerator) located 240 mm from the sample and Data Collector software v. 2.2b.
An Anton Paar temperature-humidity chamber (THC) was used to collect in-situ x-ray powder diffraction patterns as a function of humidity. The temperature of the specimen was controlled with a Peltier thermoelectric device located directly under the specimen holder and monitored with a platinum-100 resistance sensor located in the specimen holder. The thermoelectric device was powered and controlled by an Anton Paar TCU 50 interfaced with Data Collector software.
The humidity was generated with an RH-200 manufactured by VTI Inc. and carried by a flow of nitrogen gas. The humidity and temperature were monitored by a Rotronic HygroClip sensor located next to the specimen inside the THC.

[2] = Physical stability of forms on exposure to humidity, temperature or vacuum, by XRPD
Text: X-ray powder diffraction patterns were collected with a PANalytical X'Pert PRO MPD or PANalytical Empyrean diffractometer using an incident beam of Cu radiation produced using a long, fine-focus source. An elliptically graded multilayer mirror was used to focus Cu Kα x-rays through the specimen and onto the detector. […] A specimen of the sample was sandwiched between 3-μm-thick films and analyzed in transmission geometry. A beam-stop, short anti-scatter extension, and anti-scatter knife edge were used to minimize the background generated by air. Soller slits for the incident and diffracted beams were used to minimize broadening and asymmetry from axial divergence. Diffraction patterns were collected using a scanning position-sensitive detector (X'Celerator) located 240 mm from the specimen and Data Collector software v. 2.2b or 5.5. All images were produced with the instrument labeled as X'Pert PRO MPD regardless of the instrument used.
as §1, with “geometry.” for “geometry. Data were collected and analyzed using Data Collector software v. 2.2b.”, “a” for “a nickel-coated copper”, “Anti-scatter” for “Antiscatter”

[3] = Water activity slurries in aqueous solvent mixtures, solid phase by XRPD
Text: The effect of water activity (aw) on the hydration state can be investigated through competitive water activity trituration experiments (slurries) in various aqueous solvent mixtures. The resulting solid phase can be characterized by x-ray powder diffraction. The experiments can establish the physically stable form at various aw. Water activity can also be related to relative humidity in that RH %=aw×100. Therefore, it is possible to directly relate the stability of an anhydrous/hydrate system in slurry experiments to solid-state stability. The slurry technique at controlled water activities can provide an accurate method of rapidly predicting the physically stable form in anhydrous/hydrate systems. […] The times, temperatures, and humidity are approximate. As with Table 1, the term “B” means birefringent when viewed by polarized light microscopy with cross polars.
Solutions were prepared by adding enough solids to a given solvent so that excess solids were present. The mixture was then agitated in a sealed vial at either ambient or elevated temperature. After a given amount of time, the solids were isolated for analysis.

[4] = Variable temperature XRPD (VT-XRPD)
Text: as §1, with “air scattering.” for “air.”, “sample.” for “sample and Data Collector software v. 2.2b.”
An Anton Paar TTK 450 stage was used to collect in-situ x-ray powder diffraction patterns as a function of temperature. The sample was heated with a resistance heater located directly under the sample holder, and the temperature was monitored with a platinum-100 resistance sensor located in the specimen holder. The heater was powered and controlled by an Anton Paar TCU 100 interfaced with Data Collector software.

[5] = Dynamic vapor sorption/desorption (DVS), VTI SGA-100; conditions: for form of material recovered after DVS, by XRPD: after sorption/desorption 5% to 95% RH
Description: Moisture sorption/desorption data were collected on a VTI SGA-100 Vapor Sorption Analyzer. NaCl and PVP were used as calibration standards. Samples were not dried prior to analysis. […] The equilibrium criterion used for analysis was less than 0.0100% weight change in 5 minutes with a maximum equilibration time of 3 hours. Data were not corrected for the initial moisture content of the samples.

[6] = Dynamic Vapor Sorption test (SMS DVS Intrinsic), Example 23; conditions: 25° C.
Description: Dynamic Vapor Sorption (DVS) was measured using an SMS (Surface Measurement Systems) DVS Intrinsic. [table]

[7] = from 5 to 25% RH, screening material, mixture of Form I and Form II
[8] = from 25 to 85% RH, screening material, mixture of Form I and Form II

Structure (SMILES): C[C@H](CCCC(C)(C)O)[C@H]1CC[C@H]2[C@@H]3CC=C4C[C@@H](OS(=O)(=O)[O-])CC[C@]4(C)[C@H]3CC[C@]12C.[Na+] [Forms I+XIII, 25HC3S sodium]
- time to complete dehydration/conversion to Form XIII [1]: ≤ 20 min
- form change on exposure to humidity ([1]; isolated at 15% RH, exposed to 25% RH, held minimum one hour): converted to Form I

Structure (SMILES): C[C@H](CCCC(C)(C)O)[C@H]1CC[C@H]2[C@@H]3CC=C4C[C@@H](OS(=O)(=O)[O-])CC[C@]4(C)[C@H]3CC[C@]12C.[Na+] [Form III, 25HC3S sodium]
- form change on heating ([2]; 58° C. and vacuum overnight, or 130° C.): desolvates to another anhydrous form, Form IX
- form change at ambient conditions [2]: desolvates to Form II

Structure (SMILES): C[C@H](CCCC(C)(C)O)[C@H]1CC[C@H]2[C@@H]3CC=C4C[C@@H](OS(=O)(=O)[O-])CC[C@]4(C)[C@H]3CC[C@]12C.[Na+] [Form XIII, 25HC3S sodium]
- relative humidity before which Form XIII hydrates to Form I ([1]; increasing humidity): < 25 % RH
- form change at ambient conditions [2]: quickly hydrates to Form I

Structure (SMILES): C[C@H](CCCC(C)(C)O)[C@H]1CC[C@H]2[C@@H]3CC=C4C[C@@H](OS(=O)(=O)[O-])CC[C@]4(C)[C@H]3CC[C@]12C.[Na+] [Form I, 25HC3S sodium]
- water activity above which Form I is believed to form liquid crystal Form V [3]: above 0.73 aw
- behaviour upon exposure to 0% RH ([1]; 0% RH): dehydrate within minutes to Form XIII
- time to complete dehydration/conversion to Form XIII [1]: 20 min
- temperature by which decomposition product trisodium hydrogen disulfate, Na3H(SO4)2, was evident [4]: ≤ 170 °C
- form shown after dehydration by heating ([4]; heating to 170° C. and then dropping to 135° C.): Form XIII
- hygroscopicity [2]: hygroscopic
- form change on drying ([2]; exposure to either 0% RH or 70° C. under vacuum): dehydrated Form I to Form XIII

Structure (SMILES): C[C@H](CCCC(C)(C)O)[C@H]1CC[C@H]2[C@@H]3CC=C4C[C@@H](OS(=O)(=O)[O-])CC[C@]4(C)[C@H]3CC[C@]12C.[Na+] [Form V, 25HC3S sodium]
- water activity of aqueous solvent mixture slurries from which the form resulted [3]: above 0.73 aw
- physical stability by XRPD ([2]; exposure to 55° C. and vacuum for 1 day): remained Form V
- physical stability by XRPD ([2]; storage at ambient conditions for 25 days): no changes observed

Structure (SMILES): C[C@H](CCCC(C)(C)O)[C@H]1CCC2C3CC=C4C[C@@H](OS(=O)(=O)[O-])CC[C@]4(C)C3CC[C@@]21C.[Na+] (stereo partly drawn) [25HC3S sodium, Sodium [(3S,10R,13R,17R)-17-[(1R)-5-hydroxy-1,5-dimethyl-hexyl]-10,13-dimethyl-2,3,4,7,8,9,11,12,14,15,16,17-dodecahydro-1H-cyclopenta[a]phenanthren-3-yl] sulfate]
- form of material recovered after DVS, by XRPD [5]: predominantly Form I with an additional peak near 8.8°
- water corresponding to weight gain (DVS) [5, 7]: 1.5 mol/mol water
- weight gain (DVS) [5, 7]: approximately 5 wt %
- water corresponding to weight gain (DVS) [5, 8]: 1.8 mol/mol water
- weight gain (DVS) [5, 8]: ~6 wt %
- weight gain (DVS) ([5]; from 85 to 95% RH): ~6 wt %
- hygroscopicity (DVS isotherm) ([5]; screening material, mixture of Form I and Form II): hygroscopic
- hygroscopicity (DVS test) [6]: hygroscopic
- moisture reversibly absorbed ([6]; below 30% RH): 7.0%
- water absorbed ([6]; by 95% RH): 8.5%
- Result (form) of water activity slurry ([3]; 0.73 aw, 94:06 ACN/H2O, 8 days, approximately room temperature): I +
- Result (form) of water activity slurry ([3]; combination of samples from 0.5 aw and 0.38 aw, 56 days, filtered and dried under N2 for 30 min.): I +
- form after humidity exposure, by XRPD ([2]; 75% RH for 10 days, screening material, mixture of Form I and Form II): predominately Form I and two additional peaks near 4.4°2θ and 8.8°2θ
- form after heat exposure, by XRPD ([2]; briefly exposed to 130° C., screening material, mixture of Form I and Form II): mixture of Forms I, II, and XIII

Structure (SMILES): C[C@H](CCCC(C)(C)O)[C@H]1CC[C@H]2[C@@H]3CC=C4C[C@@H](OS(=O)(=O)[O-])CC[C@]4(C)[C@H]3CC[C@]12C.[Na+] [Form II, 25HC3S sodium]
- water accommodated in fully hydrated state ([5]; DVS sorption isotherm at 85% RH (FIG. 16)): approximately 3 mol/mol of water
- form of material recovered after DVS, by XRPD [5]: mixture of Form II and Form V
- water corresponding to weight gain (DVS) ([5]; from 5 to 55% RH): 1 mol/mol water
- weight gain (DVS) ([5]; from 5 to 55% RH): approximately 3.5 wt %
- water corresponding to weight gain (DVS) ([5]; from 55 to 85% RH): 2 mol/mol water
- weight gain (DVS) ([5]; from 55 to 85% RH): ~7 wt %
- weight gain (DVS) ([5]; from 85 to 95% RH): ~7 wt %
- form change in variable humidity XRPD ([1]; ambient temperature, 0% to 85% RH): a form change did not occur
- form observed by XRPD at elevated temperature ([4]; 135° C.): still observed
- relative humidity of exposure at which the form converts to Form V [2]: ≥ 75 % RH
- time to conversion to Form V ([2]; exposure to 75% RH): up to 35 days
- form stability by XRPD ([2]; stored at 0% RH for up to 35 days): remained unchanged
- form stability by XRPD ([2]; under dry nitrogen for up to 4 days): remained unchanged

— patent US12692288B2, “Crystalline and liquid crystalline 25-hydroxy-cholest-5-en-3-sulfate sodium and methods for preparing same” (Medicis Pharmaceutical Corporation, priority 2019, dated 2026)
